Common to all, as to type: functional
Test [1] deals with Saccharomyces cerevisiae. Briefly: Growth inhibition of Saccharomyces cerevisiae slt2delta deletion mutant at 1.6 mM relative to control after 48 hrs.
The test system of test [2] is Saccharomyces cerevisiae. Briefly: Growth inhibition of Saccharomyces cerevisiae slt2delta deletion mutant at 3.2 mM relative to control after 48 hrs.
Test [3] concerns Saccharomyces cerevisiae. Briefly: Antifungal activity against Saccharomyces cerevisiae slt2delta deletion mutant assessed as cell number at 1.6 mM after 48 hrs.
The test system of test [4] is Saccharomyces cerevisiae. Briefly: Antifungal activity against Saccharomyces cerevisiae slt2delta deletion mutant assessed as cell number at 3.2 mM after 48 hrs.

In general, inhibition refers to how much of the control response was suppressed. A low value points to a weak effect. In the case of `CCCOC(=O)CCc1ccc(O)c(OC)c1` [DIHYDROFERULIC ACID PROPYL ESTER], the inhibition at 1600 µM in the test on Saccharomyces cerevisiae [1] came out at 75.5%. Moreover, at 3200 µM the inhibition with Saccharomyces cerevisiae [2] was 90.7%. Moreover, the results for the Activity in the test with Saccharomyces cerevisiae [3] and in the test with Saccharomyces cerevisiae [4] were 1.13 and 0.43, respectively.

The record behind these values is ChEMBL document CHEMBL1139888, “Fungicidal activities of dihydroferulic acid alkyl ester analogues” (2007).
